pIC50: −log10 of the molar value.
Assays:
[1] = system: Activated CD4 T-cells; experiment: Cell toxicity in the HIV replication assay (FIG. 4A); conditions: 50 μM, or 100 μM diflunisal
[2] = cited from earlier work
[3] = system: p300- and Tat-mediated transactivation of HIV transcription; experiment: HIV-1 LTR luciferase reporter assay in Hela cells co-transfected with Tat and p300; assay type: cell-based
Procedure: An HIV-1 LTR promoter plasmid linked to a luciferase reporter plasmid, with or without the expression vector for HIV-1 Tat and p300, was transfected into cells. Cells were treated with sodium salicylate at same time of transfection. 36 hours later, the cells were lysed with passive lysis buffer (Promega), and luciferase activity was measured using a luminometer.
The effect of diflunisal on HIV transcription was tested. A plasmid containing HIV-1 driving the luciferase reporter was co-transfected into Hela cells with or without expression vectors encoding Tat and/or p300. Co-transfection of the HIV LTR with either Tat or p300 enhanced LTR activity 4 fold (FIG. 2) and 12 fold (FIG. 2) respectively. Co-expression of both Tat and p300 synergistically activated the HIV promoter 48 fold (FIG. 2). […] The IC50 for this inhibition was 80 μM.

[4] = system: replication-competent NL4-3/GFP virus; experiment: HIV replication assay (GFP positive cells by flow cytometry); assay type: cell-based; conditions: activated CD4 T-cells, MOI of 0.3, 50 μM, or 100 μM diflunisal, collected every 2 to 3 days
[5] = biological target: recombinant p300 (Homo sapiens, UniProt Q09472); experiment: In vitro HAT assay (histone acetylation, 14C acetyl CoA, autoradiography); assay type: biochemical; conditions: 1 μg recombinant p300, 10 μg Histone, pre-incubation 30° C. 30 min, densitometry; read-out: IC50 of inhibition of histone acetylation by p300
recombinant p300, sequence (Q09472 whole entry, species assumed): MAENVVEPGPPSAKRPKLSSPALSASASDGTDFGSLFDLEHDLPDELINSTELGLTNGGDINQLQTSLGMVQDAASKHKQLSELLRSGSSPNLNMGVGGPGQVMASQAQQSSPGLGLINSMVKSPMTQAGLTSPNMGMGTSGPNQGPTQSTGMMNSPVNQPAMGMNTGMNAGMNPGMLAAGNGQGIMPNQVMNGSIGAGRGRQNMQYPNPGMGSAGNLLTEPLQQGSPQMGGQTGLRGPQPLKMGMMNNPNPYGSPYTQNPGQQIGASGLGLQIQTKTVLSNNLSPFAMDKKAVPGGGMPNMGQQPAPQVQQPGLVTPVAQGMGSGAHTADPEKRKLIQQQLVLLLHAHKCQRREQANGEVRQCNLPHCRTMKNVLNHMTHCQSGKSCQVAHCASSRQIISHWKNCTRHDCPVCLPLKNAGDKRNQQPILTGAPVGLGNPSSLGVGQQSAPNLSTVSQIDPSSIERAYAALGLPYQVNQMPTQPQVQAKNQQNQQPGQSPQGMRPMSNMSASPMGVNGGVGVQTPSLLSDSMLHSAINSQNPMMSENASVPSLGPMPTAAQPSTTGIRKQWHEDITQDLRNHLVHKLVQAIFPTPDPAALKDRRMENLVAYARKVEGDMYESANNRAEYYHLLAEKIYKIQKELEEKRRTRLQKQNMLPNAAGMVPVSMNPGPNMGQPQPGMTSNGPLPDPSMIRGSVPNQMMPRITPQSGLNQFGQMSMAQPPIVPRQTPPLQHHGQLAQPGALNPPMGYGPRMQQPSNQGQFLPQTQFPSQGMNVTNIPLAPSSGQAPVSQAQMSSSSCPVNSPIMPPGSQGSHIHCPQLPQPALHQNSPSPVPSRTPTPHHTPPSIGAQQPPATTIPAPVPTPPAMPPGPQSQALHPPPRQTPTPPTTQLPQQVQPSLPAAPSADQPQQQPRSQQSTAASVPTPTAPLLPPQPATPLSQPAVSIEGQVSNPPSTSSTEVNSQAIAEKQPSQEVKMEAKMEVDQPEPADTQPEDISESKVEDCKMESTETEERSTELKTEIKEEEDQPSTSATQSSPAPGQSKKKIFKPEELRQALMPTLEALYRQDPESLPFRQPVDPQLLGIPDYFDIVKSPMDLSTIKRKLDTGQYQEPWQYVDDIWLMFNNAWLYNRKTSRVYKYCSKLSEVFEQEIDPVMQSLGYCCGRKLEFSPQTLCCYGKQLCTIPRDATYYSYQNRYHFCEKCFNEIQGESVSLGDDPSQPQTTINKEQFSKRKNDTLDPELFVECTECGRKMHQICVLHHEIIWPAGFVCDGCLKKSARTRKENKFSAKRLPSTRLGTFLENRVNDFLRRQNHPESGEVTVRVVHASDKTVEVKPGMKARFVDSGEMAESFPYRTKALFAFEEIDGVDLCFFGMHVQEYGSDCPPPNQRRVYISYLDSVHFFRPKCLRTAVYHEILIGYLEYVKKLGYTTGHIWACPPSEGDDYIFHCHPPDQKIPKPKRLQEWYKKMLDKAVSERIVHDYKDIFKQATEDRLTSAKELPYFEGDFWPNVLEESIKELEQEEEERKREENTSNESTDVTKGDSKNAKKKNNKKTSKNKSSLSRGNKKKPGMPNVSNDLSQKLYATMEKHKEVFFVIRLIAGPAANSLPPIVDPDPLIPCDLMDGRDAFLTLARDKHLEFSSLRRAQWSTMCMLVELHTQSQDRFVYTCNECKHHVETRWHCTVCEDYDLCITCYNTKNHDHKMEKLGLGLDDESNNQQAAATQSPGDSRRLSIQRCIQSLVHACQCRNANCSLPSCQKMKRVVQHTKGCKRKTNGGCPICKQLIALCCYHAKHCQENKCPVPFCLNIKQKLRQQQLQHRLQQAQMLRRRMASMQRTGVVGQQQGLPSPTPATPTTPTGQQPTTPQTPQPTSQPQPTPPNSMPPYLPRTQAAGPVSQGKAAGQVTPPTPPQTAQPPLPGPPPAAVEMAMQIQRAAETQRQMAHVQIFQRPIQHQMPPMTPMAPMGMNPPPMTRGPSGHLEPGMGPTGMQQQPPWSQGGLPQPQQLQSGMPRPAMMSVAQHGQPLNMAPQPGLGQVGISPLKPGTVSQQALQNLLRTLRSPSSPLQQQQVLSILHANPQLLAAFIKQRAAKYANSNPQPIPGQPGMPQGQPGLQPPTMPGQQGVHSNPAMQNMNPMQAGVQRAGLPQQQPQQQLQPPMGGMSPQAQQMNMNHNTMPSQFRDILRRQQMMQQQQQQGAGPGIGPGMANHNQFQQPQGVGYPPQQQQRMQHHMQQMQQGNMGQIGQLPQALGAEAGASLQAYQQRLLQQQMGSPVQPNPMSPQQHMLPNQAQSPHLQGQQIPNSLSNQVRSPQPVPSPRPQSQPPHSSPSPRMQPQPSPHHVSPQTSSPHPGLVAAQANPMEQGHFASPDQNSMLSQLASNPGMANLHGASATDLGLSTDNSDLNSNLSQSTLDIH
Procedure: 1 μg of HAT proteins (p300, CBP, pCAF, GCN5) and 10 μg of Histone were pre-incubated with or without sodium salicylate at various doses in an appropriate buffer (50 mM Hepes, pH 8.0, 10% Glycerol, 1 mM dithiothreitol (DTT)) at 30° C. for 30 min. After the pre-incubation period, 0.05 μCi of ^14C labeled acetyl CoA was added; the mixture was incubated for 1 hour. Samples were subjected to sodium dodecyl sulfate-polyacrylamide electrophoresis (SDS-PAGE). After electrophoresis, the gels were dried. Acetylation signals were detected in the dried gels by autoradiography. Band densities were measured by Image™ software (http://rsbweb(dot)nih(dot)gov/ij/); and the relative histone acetylation was plotted.
1 μg of recombinant p300 and 10 μg of Histone were pre-incubated with or without diflunisal at various doses in an appropriated buffer (50 mM Hepes, pH 8.0, 10% Glycerol, 1 mM DTT) at 30° C. for 30 min. 0.05 μCi of ^14C-labeled acetylCoA was then added, and the mixture was incubated for 1 hour. Histones were separated by SDS-PAGE (FIG. 1, bottom panel). Acetylation of Histone H3 and H4 were detected by autoradiography (FIG. 1, middle panel). […] Three different experimental systems were used to test the effect of diflunisal on HIV transcription and replication.

[6] = system: VSV-G envelope pseudotyped NL4-3 luciferase reporter viruses; experiment: microbe, parasite or virus in culture; assay type: cell-based, HIV

## O=C(O)c1cc(-c2ccc(F)cc2F)ccc1O [Diflunisal, 2′,4′-difluoro-4-hydroxy-3-biphenylcarboxylic acid]
[1]
  Cell toxicity (FIG. 4A): did not show cell toxicity
[2]; clinical dosage 0.5-1.0 gram per day
  Plasma trough concentrations: 100 to 300 µM
[2]; in vivo
  Bioavailability: 80-90%
  Half-life: 8 to 12 h
[3]; Human immunodeficiency virus 1, HeLa, read-out: IC50 for inhibition of p300- and Tat-mediated transactivation of HIV transcription
  pIC50: 4.10
[3]; at 0.3 mM, Hela cells
  Block of p300- and Tat-mediated transactivation of HIV transcription: completely blocked
[4]
  Percentage of infected cells (GFP positive cells), FIG. 4B: suppressed and delayed peak of infection in a dose dependent manner
[5]
  pIC50: 2.91
[6]
  Inhibition of HIV infection (FIG. 3): inhibited HIV infection in a dose dependent manner
[6]; Human immunodeficiency virus 1, NL43, T-cell, 24 h, read-out: IC50 for inhibition of HIV infection
  pIC50: 3.83

Reference: patent US20140303074A1, “Compositions and Methods For Inhibiting Immunodeficiency Virus Transcription” (The J. David Gladstone Institutes, priority 2011, published 2014)
